# Test system: T1, carbohydrate oxidase from M. nivale (Microdochium nivale CBS 100236, SEQ ID NO: 2), wild type
# T1 construct: made in house
# Assay: Steady state kinetics (apparent Km) by the 4AA-TOPS assay
# Type: biochemical
# Details: apparent value from Lineweaver-Burke plot, simple Michaelis-Menten kinetics assumed, carbohydrate substrate concentration varied, phosphate/citrate pH 6
# Procedure: Assays are carried out in 96 well microtiter plates. 100 µl 0.1 M phosphate/citrate, pH 6 is mixed with 50 µl 0.24 M glucose and 50 µl pre-mix (3 mM 4-aminoantipyrine (4AA), 7 mM N-ethyl-N-sulfopropyl-m-toluidine (TOPS), 40 PODU/ml rCiP) and the reaction is started by adding 40 µl of oxidase solution diluted appropriately. Absorption is measured at 490 nm as a function time using the Vmax microtiter plate ready from Molecular Devices and the activity is taken as the slope of the linear increase in absorption.
# Steady state kinetics was conducted by varying the concentration of the carbohydrate substrates and determining the carbohydrate oxidase activity by the 4AA-TOPS assay. Simple Michaelis-Menten kinetics was assumed although the reaction is not a simple one substrate-one product mechanism (E+S↔ES↔E+P).
# The steady state kinetics for the carbohydrate oxidase from M. nivale were investigated using some of the preferred substrates. Kinetic constants were obtained from a Lineweaver-Burke plot, assuming simple Michaelis-Menten kinetics (although this is a rather poor assumption) to obtain apparent values "Km" and "Vmax" for various substrates.
row,SMILES,Km [mM]
1,OC[C@H]1O[C@H](O[C@H]2[C@H](O)[C@@H](O)C(O)O[C@@H]2CO)[C@H](O)[C@@H](O)[C@@H]1O (mixture of isomers) [Maltose],11
2,O=C[C@H](O)[C@@H](O)[C@H](O[C@@H]1O[C@H](CO)[C@@H](O)[C@H](O)[C@H]1O)[C@H](O)CO [Cellobiose],59
3,OC[C@H]1OC(O)[C@H](O)[C@@H](O)[C@@H]1O (stereo partly drawn) [Glucose],42
